# Test results: patent US20080313751A1, “Method by Using Human or Mice-Isg12 to Develop and Prepare Drugs and Single Nucleotide Polymorphism in the Isg12 Gene for Diagnostic Use” (priority 2005, published 2008)
# System: NR4A1
# Assay: Subcellular (cytosol/nucleus) distribution of NR4A1 with overexpressed ISG12
# Format: cell-based, human
# Conditions: EGFP-tagged NR4A1 and myc-tagged ISG12 overexpressed; data not shown
# Source text: In order to quantify the effect of ISG12 on the cellular localization of NR4A1, the inventors analyzed the distribution of NR4A1 between the cytosol and the nucleus by separating sub-cellular fractions of 293 cells in which EGFP-tagged NR4A1 was overexpressed in the absence or presence of myc-tagged ISG12. In the presence of ISG12 20.8±7.4% (average±SD from 4 experiments; p<0.05) more NR4A1 was found in the cytosol as in the absence of ISG12. […] A representative example is given (n=3).
# When the same experiments were performed with an EGFP-tagged NR4A1 construct (AA248-580) that cannot be exported from the nucleus^24 no influence of ISG12 on subcellular distribution of that construct was seen (FIG. 5). Similarly, the effect of ISG12 on full length NR4A1 was impaired in the presence of leptomycin B that inhibits nuclear export (data not shown).
# Human embryonic kidney 293 cells were grown in 6-wells to sub-confluence and then transfected with EGFP-NR4A1 and mycISG12 together or separately. Cell fractionation was performed 30 hours after transfection, using MS buffer (210 mM mannitol, 70 mM sucrose, 5 mM Tris-HCl, pH 7.5 and 1 mM EDTA) containing 1% protease inhibitor cocktail. After homogenizing the cells with a 27 gauge needle 10 times, samples were spun at 1300×g for 10 minutes at 4° C. to pellet the nuclei. […]
smiles,measurement,value
CCC(=C/[C@H](C)C/C=C/C(C)=C/[C@@H](C)C(=O)[C@@H](C)[C@H](O)[C@@H](C)C/C(C)=C/C(=O)O)/C=C/[C@@H]1OC(=O)C=C[C@@H]1C [leptomycin B],effect of ISG12 on full length NR4A1 (nuclear export / subcellular distribution) in the presence of the substance,impaired
